Reference: US20210346391A1, “TREATMENT OF PRURITUS WITH P2X3 MODULATORS” (Bellus Health Cough Inc., priority 2018, published 2021)

Columns and labels:
[1] = test system: chloroquine (CQ) induced itch behavior; assay: Chloroquine-induced mouse model of acute itch and its potentiation by α,β-Me-ATP; type: in vivo
[2] = test system: chronic itch behavior (spontaneous scratches); assay: AEW (acetone-ether-water) dry skin model of chronic itch; type: in vivo, mouse; conditions: Day 10
[3] = test system: chronic itch behavior (spontaneous scratches); assay: MC903 atopic dermatitis model of chronic itch; type: in vivo, mouse; conditions: Day 8
Experimental: MC903 (calcipotriol, Tocris) was dissolved in 100% ethanol and topically applied on C57B16/J male mouse ears (4 nmol in 40 μl, 10 μl per side of ear) or nape (4 nmol in 40 μl). This regimen was administered twice daily for 7 days. Scratching behaviors were recorded 16 h after the last MC903 treatment. […] Mice were placed individually into behavior chambers and video recorded at a side angle for 60-90 minutes. A scratch was defined as a lifting of the hind limb towards the nape or head to scratch and then a replacing of the limb back to the floor, regardless of how many scratching strokes take place between lifting and lowering of the hind limb. Experimenters for injections and observers of scratching behavior were blinded to the injection compounds and groups of mice, respectively.

CNC(=O)c1cc(F)c(-c2nc3cc(C)ccn3c2C[C@H]2CN(C(=O)OC)CCO2)c(F)c1 [Compound 1]
number of scratches in 15 minutes (mean ± s.e.m.) ([1]; 20 μg CQ + 50 μM α,β-Me-ATP, 10 mg/kg i.p., vehicle 46.6±2.9, p=0.0084): 28.3±4.6 scratches | decrease of the potentiation of CQ-induced itch by ATP ([1]; 20 μg CQ + 50 μM α,β-Me-ATP, 10 mg/kg i.p., vs vehicle): 40% | scratching behavior compared to vehicle ([1]; 20 μg CQ + 50 μM α,β-Me-ATP, 2, 10, or 50 mg/kg i.p. 30 min before, FIG. 2): decreased scratching behavior | number of scratches in 15 minutes (mean ± s.e.m.) ([1]; 20 μg CQ + 100 μM α,β-Me-ATP, 10 mg/kg i.p., vehicle 67±6.3, p=0.0074, FIG. 3): 44.8±3.8 scratches | decrease of the potentiation of CQ-induced itch by higher concentrations of ATP ([1]; 20 μg CQ + 100 μM α,β-Me-ATP, 10 mg/kg i.p., vs vehicle): 33% | decrease of itch induced by high dose CQ ([1]; 200 μg CQ, 10 mg/kg i.p., vs vehicle): 21% | number of scratches in 30 minutes (mean ± s.e.m.) ([1]; high dose CQ 200 μg, 10 mg/kg i.p., vehicle 280±16.1, p=0.011, FIG. 4): 221.8±12.9 scratches | time course of spontaneous scratches in 10-min intervals ([2]; 2, 10, 50 mg/kg i.p., FIG. 6): significant effect on spontaneous scratches at 20 min, 40 min, 50 min, and 60 min | spontaneous scratches in 60 min compared to vehicle ([2]; 2, 10, or 50 mg/kg i.p., statistically significant for all doses (p<0.001), FIG. 5): decreased spontaneous scratches | time course of spontaneous scratches in 10-min intervals ([3]; 2, 10, 50 mg/kg i.p., FIG. 8): significant effect on spontaneous scratches at 10 min, 20 min, 30 min, 40 min, 50 min, and 60 min time points | spontaneous scratches in 60 min compared to vehicle ([3]; 2, 10, or 50 mg/kg i.p., statistically significant for all three doses, FIG. 7): dose-dependently decreased spontaneous scratches

Nc1ncnc2c1ncn2C1OC(COP(=O)(O)CP(=O)(O)OP(=O)(O)O)C(O)C1O (stereo not drawn) [α,β-Me-ATP, α,β-methylene-adenosine 5′-triphosphate, reference compound]
number of scratches (mean ± s.e.m.) ([1]; co-injected i.d. low dose CQ (20 μg) + 10 μM α,β-Me-ATP, p=0.0013 vs CQ): 28.2±2.2 scratches | scratching behavior compared to CQ only or CQ+10 μM α,β-Me-ATP ([1]; co-injected i.d. low dose CQ (20 μg) + 50 μM α,β-Me-ATP, p<0.001 vs CQ, FIG. 1): further increased scratching behaviors | number of scratches (mean ± s.e.m.) ([1]; mice injected i.d. solely with 10 μM α,β-Me-ATP): 2.4±0.9 scratches | number of scratches (mean ± s.e.m.) ([1]; mice injected i.d. solely with 50 μM α,β-Me-ATP): 5.6±1.8 scratches

CCN(CC)CCCC(C)Nc1ccnc2cc(Cl)ccc12 (stereo not shown) [CQ, chloroquine, reference compound]
number of scratches (mean ± s.e.m.) ([1]; mouse, in vivo): 17.2±2.4 scratches
